In ChEMBL document CHEMBL4033638, “Effect of natural and semi-synthetic cadinanes from Heterotheca inuloides on NF-κB, Nrf2 and STAT3 signaling pathways and evaluation of their in vitro cytotoxicity in human cancer cell lines” (Bioorg Med Chem, 2017):
pIC50: −log10 of the molar value.

tested on: PC-3; assay: Antiproliferative activity against human PC3 cells after 48 hrs by sulforhodamine B assay; assay type: functional, cell-based; settings: PC-3, 48 h

Row | SMILES | pIC50
1 | CC1=CC[C@H](C(C)C)c2cc(C)c(OC(=O)Nc3ccccc3)cc21 | 5.10
2 | Cc1cc2c(C(C)C)ccc(C)c2cc1OC(=O)Nc1ccccc1 | 5.06
3 | Cc1ccc(C(=O)Oc2cc3c(C)ccc(C(C)C)c3cc2C)cc1 | 4.62
4 | Cc1cc2c(C(C)C)ccc(C)c2cc1OC(=O)c1ccc([N+](=O)[O-])cc1 | 4.76

tested on: U-251; assay: Antiproliferative activity against human U251 cells at 50 uM after 48 hrs by sulforhodamine B assay relative to control; assay type: functional; settings: U-251, 48 h

Row | SMILES | inhibition at 50 µM [%]
5 | CC1=CC[C@H](C(C)C)c2cc(C)c(OC(=O)Nc3ccccc3)cc21 | 100
6 | Cc1cc2c(C(C)C)ccc(C)c2cc1OC(=O)Nc1ccccc1 | 100
7 | Cc1ccc(C(=O)Oc2cc3c(C)ccc(C(C)C)c3cc2C)cc1 | 100
8 | Cc1cc2c(C(C)C)ccc(C)c2cc1OC(=O)c1ccc([N+](=O)[O-])cc1 | 100

tested on: HCT-15; assay: Antiproliferative activity against human HCT15 cells at 50 uM after 48 hrs by sulforhodamine B assay relative to control; assay type: functional; settings: HCT-15, 48 h

Row | SMILES | inhibition at 50 µM [%]
9 | CC1=CC[C@H](C(C)C)c2cc(C)c(OC(=O)Nc3ccccc3)cc21 | 92
10 | Cc1cc2c(C(C)C)ccc(C)c2cc1OC(=O)Nc1ccccc1 | 84.7
11 | Cc1ccc(C(=O)Oc2cc3c(C)ccc(C(C)C)c3cc2C)cc1 | 86.5
12 | Cc1cc2c(C(C)C)ccc(C)c2cc1OC(=O)c1ccc([N+](=O)[O-])cc1 | 97.6

tested on: K562; assay: Antiproliferative activity against human K562 cells at 50 uM after 48 hrs by sulforhodamine B assay relative to control; assay type: functional; settings: K562, 48 h

Row | SMILES | inhibition at 50 µM [%]
13 | CC1=CC[C@H](C(C)C)c2cc(C)c(OC(=O)Nc3ccccc3)cc21 | 92.6
14 | Cc1cc2c(C(C)C)ccc(C)c2cc1OC(=O)Nc1ccccc1 | 100
15 | Cc1ccc(C(=O)Oc2cc3c(C)ccc(C(C)C)c3cc2C)cc1 | 100
16 | Cc1cc2c(C(C)C)ccc(C)c2cc1OC(=O)c1ccc([N+](=O)[O-])cc1 | 100

tested on: U-251; assay: Antiproliferative activity against human U251 cells after 48 hrs by sulforhodamine B assay; assay type: functional, cell-based; settings: U-251, 48 h

Row | SMILES | pIC50
17 | CC1=CC[C@H](C(C)C)c2cc(C)c(OC(=O)Nc3ccccc3)cc21 | 6.34
18 | Cc1cc2c(C(C)C)ccc(C)c2cc1OC(=O)Nc1ccccc1 | 4.80
19 | Cc1ccc(C(=O)Oc2cc3c(C)ccc(C(C)C)c3cc2C)cc1 | 4.64
20 | Cc1cc2c(C(C)C)ccc(C)c2cc1OC(=O)c1ccc([N+](=O)[O-])cc1 | 5.11

tested on: SK-LU-1; assay: Antiproliferative activity against human SK-LU-1 cells at 50 uM after 48 hrs by sulforhodamine B assay relative to control; assay type: functional; settings: SK-LU-1, 48 h

Row | SMILES | inhibition at 50 µM [%]
21 | CC1=CC[C@H](C(C)C)c2cc(C)c(OC(=O)Nc3ccccc3)cc21 | 100
22 | Cc1cc2c(C(C)C)ccc(C)c2cc1OC(=O)Nc1ccccc1 | 90.4
23 | Cc1ccc(C(=O)Oc2cc3c(C)ccc(C(C)C)c3cc2C)cc1 | 100
24 | Cc1cc2c(C(C)C)ccc(C)c2cc1OC(=O)c1ccc([N+](=O)[O-])cc1 | 100

target: T1, Nuclear factor erythroid 2-related factor 2 (Homo sapiens) (UniProt Q16236); assay: Activation of Nrf2 in human HaCaT-ARE-Luc cells at 50 uM after 6 hrs by luciferase reporter gene assay relative to control; assay type: cell-based; settings: not given
T1 sequence (whole entry): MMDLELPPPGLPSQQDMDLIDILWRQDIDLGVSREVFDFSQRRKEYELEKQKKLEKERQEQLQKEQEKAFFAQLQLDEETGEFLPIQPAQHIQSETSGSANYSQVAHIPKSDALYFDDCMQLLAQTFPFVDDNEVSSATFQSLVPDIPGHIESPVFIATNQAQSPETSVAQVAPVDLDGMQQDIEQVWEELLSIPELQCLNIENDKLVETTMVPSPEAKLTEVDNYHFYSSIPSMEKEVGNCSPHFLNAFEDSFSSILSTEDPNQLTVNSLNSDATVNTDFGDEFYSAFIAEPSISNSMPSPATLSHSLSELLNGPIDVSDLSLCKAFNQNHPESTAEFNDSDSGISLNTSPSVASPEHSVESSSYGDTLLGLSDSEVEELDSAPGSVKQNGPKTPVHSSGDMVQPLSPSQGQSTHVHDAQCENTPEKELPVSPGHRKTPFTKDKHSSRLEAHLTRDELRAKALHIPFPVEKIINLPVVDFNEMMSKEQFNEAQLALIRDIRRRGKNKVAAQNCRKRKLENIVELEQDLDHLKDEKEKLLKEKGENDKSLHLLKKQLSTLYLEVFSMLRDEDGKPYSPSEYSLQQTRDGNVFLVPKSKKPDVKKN

Row | SMILES | fold change (FC)
25 | CC1=CC[C@H](C(C)C)c2cc(C)c(OC(=O)Nc3ccccc3)cc21 | 1.6
26 | Cc1cc2c(C(C)C)ccc(C)c2cc1OC(=O)Nc1ccccc1 | 1.4
27 | Cc1ccc(C(=O)Oc2cc3c(C)ccc(C(C)C)c3cc2C)cc1 | 1.8
28 | Cc1cc2c(C(C)C)ccc(C)c2cc1OC(=O)c1ccc([N+](=O)[O-])cc1 | 1.8

tested on: PC-3; assay: Antiproliferative activity against human PC3 cells at 50 uM after 48 hrs by sulforhodamine B assay relative to control; assay type: functional; settings: PC-3, 48 h

Row | SMILES | inhibition at 50 µM [%]
29 | CC1=CC[C@H](C(C)C)c2cc(C)c(OC(=O)Nc3ccccc3)cc21 | 93.2
30 | Cc1cc2c(C(C)C)ccc(C)c2cc1OC(=O)Nc1ccccc1 | 44.7
31 | Cc1ccc(C(=O)Oc2cc3c(C)ccc(C(C)C)c3cc2C)cc1 | 72.3
32 | Cc1cc2c(C(C)C)ccc(C)c2cc1OC(=O)c1ccc([N+](=O)[O-])cc1 | 100

tested on: K562; assay: Antiproliferative activity against human K562 cells after 48 hrs by sulforhodamine B assay; assay type: functional, cell-based; settings: K562, 48 h

Row | SMILES | pIC50
33 | CC1=CC[C@H](C(C)C)c2cc(C)c(OC(=O)Nc3ccccc3)cc21 | 6.52
34 | Cc1cc2c(C(C)C)ccc(C)c2cc1OC(=O)Nc1ccccc1 | 4.85
35 | Cc1ccc(C(=O)Oc2cc3c(C)ccc(C(C)C)c3cc2C)cc1 | 5.08
36 | Cc1cc2c(C(C)C)ccc(C)c2cc1OC(=O)c1ccc([N+](=O)[O-])cc1 | 5.64

tested on: SK-LU-1; assay: Antiproliferative activity against human SK-LU-1 cells after 48 hrs by sulforhodamine B assay; assay type: functional, cell-based; settings: SK-LU-1, 48 h

Row | SMILES | pIC50
37 | CC1=CC[C@H](C(C)C)c2cc(C)c(OC(=O)Nc3ccccc3)cc21 | 6.92
38 | Cc1cc2c(C(C)C)ccc(C)c2cc1OC(=O)Nc1ccccc1 | 5.00
39 | Cc1ccc(C(=O)Oc2cc3c(C)ccc(C(C)C)c3cc2C)cc1 | 4.99
40 | Cc1cc2c(C(C)C)ccc(C)c2cc1OC(=O)c1ccc([N+](=O)[O-])cc1 | 5.03

tested on: HCT-15; assay: Antiproliferative activity against human HCT15 cells after 48 hrs by sulforhodamine B assay; assay type: functional, cell-based; settings: HCT-15, 48 h

Row | SMILES | pIC50
41 | CC1=CC[C@H](C(C)C)c2cc(C)c(OC(=O)Nc3ccccc3)cc21 | 7.52
42 | Cc1cc2c(C(C)C)ccc(C)c2cc1OC(=O)Nc1ccccc1 | 5.41
43 | Cc1ccc(C(=O)Oc2cc3c(C)ccc(C(C)C)c3cc2C)cc1 | 4.92
44 | Cc1cc2c(C(C)C)ccc(C)c2cc1OC(=O)c1ccc([N+](=O)[O-])cc1 | 5.10

tested on: not listed separately; assay: Inhibition of TNFalpha-stimulated NFkappaB (unknown origin) expressed in mouse NIH-3T3-KBFLuc cells at 50 uM after 6 hrs by luciferase reporter gene assay relative to control; assay type: cell-based; settings: Homo sapiens

Row | SMILES | inhibition [%]
45 | CC1=CC[C@H](C(C)C)c2cc(C)c(OC(=O)Nc3ccccc3)cc21 | 4.2
46 | Cc1cc2c(C(C)C)ccc(C)c2cc1OC(=O)Nc1ccccc1 | 13.3
47 | Cc1ccc(C(=O)Oc2cc3c(C)ccc(C(C)C)c3cc2C)cc1 | 30.3
48 | Cc1cc2c(C(C)C)ccc(C)c2cc1OC(=O)c1ccc([N+](=O)[O-])cc1 | 18.5

tested on: MCF7; assay: Antiproliferative activity against human MCF7 cells at 50 uM after 48 hrs by sulforhodamine B assay relative to control; assay type: functional; settings: MCF7, 48 h

Row | SMILES | inhibition at 50 µM [%]
49 | CC1=CC[C@H](C(C)C)c2cc(C)c(OC(=O)Nc3ccccc3)cc21 | 75.1
50 | Cc1cc2c(C(C)C)ccc(C)c2cc1OC(=O)Nc1ccccc1 | 100
51 | Cc1ccc(C(=O)Oc2cc3c(C)ccc(C(C)C)c3cc2C)cc1 | 90.2
52 | Cc1cc2c(C(C)C)ccc(C)c2cc1OC(=O)c1ccc([N+](=O)[O-])cc1 | 100

tested on: not listed separately; assay: Cytotoxicity against human gingival fibroblasts assessed as decrease in cell viability at 50 uM after 48 hrs by sulforhodamine B dye-based assay; settings: gingival fibroblast

Row | SMILES | Activity
53 | Cc1cc2c(C(C)C)ccc(C)c2cc1OC(=O)Nc1ccccc1 | Non-Toxic

target: Signal transducer and activator of transcription 3 (Homo sapiens) (UniProt P40763); assay: Inhibition of IFNgamma-stimulated STAT3 (unknown origin) activation expressed in human HeLa cells at 50 uM after 6 hrs by luciferase reporter gene assay relative to control; assay type: cell-based; settings: not given
Sequence (P40763 whole entry): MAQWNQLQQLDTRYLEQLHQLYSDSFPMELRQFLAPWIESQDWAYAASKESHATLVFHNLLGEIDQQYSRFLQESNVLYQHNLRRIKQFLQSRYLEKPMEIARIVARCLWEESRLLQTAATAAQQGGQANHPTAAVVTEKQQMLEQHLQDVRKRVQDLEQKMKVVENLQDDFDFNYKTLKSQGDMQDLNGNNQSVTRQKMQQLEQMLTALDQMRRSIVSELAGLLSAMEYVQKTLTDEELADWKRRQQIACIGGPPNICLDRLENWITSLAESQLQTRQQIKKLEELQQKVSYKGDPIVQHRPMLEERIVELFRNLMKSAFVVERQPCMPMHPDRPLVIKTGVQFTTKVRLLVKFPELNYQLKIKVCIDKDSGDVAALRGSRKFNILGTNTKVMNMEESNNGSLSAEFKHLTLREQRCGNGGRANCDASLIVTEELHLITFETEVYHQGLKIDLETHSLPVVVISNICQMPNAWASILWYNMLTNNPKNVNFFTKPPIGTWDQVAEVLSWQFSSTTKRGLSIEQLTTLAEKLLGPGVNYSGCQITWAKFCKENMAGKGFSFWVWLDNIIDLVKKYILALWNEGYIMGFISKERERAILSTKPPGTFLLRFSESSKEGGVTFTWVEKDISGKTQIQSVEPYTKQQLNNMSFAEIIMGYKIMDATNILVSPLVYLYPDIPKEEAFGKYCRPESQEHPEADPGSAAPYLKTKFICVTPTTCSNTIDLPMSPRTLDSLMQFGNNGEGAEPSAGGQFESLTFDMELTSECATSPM

Row | SMILES | inhibition [%]
54 | CC1=CC[C@H](C(C)C)c2cc(C)c(OC(=O)Nc3ccccc3)cc21 | 3.3
55 | Cc1cc2c(C(C)C)ccc(C)c2cc1OC(=O)Nc1ccccc1 | 3
56 | Cc1ccc(C(=O)Oc2cc3c(C)ccc(C(C)C)c3cc2C)cc1 | 2.9
57 | Cc1cc2c(C(C)C)ccc(C)c2cc1OC(=O)c1ccc([N+](=O)[O-])cc1 | 1.6

tested on: not listed separately; assay: Cytotoxicity against human gingival fibroblasts assessed as decrease in cell viability at 50 uM after 48 hrs by sulforhodamine B dye-based assay relative to control; settings: gingival fibroblast

Row | SMILES | Activity [%]
58 | CC1=CC[C@H](C(C)C)c2cc(C)c(OC(=O)Nc3ccccc3)cc21 | 38.24
59 | Cc1ccc(C(=O)Oc2cc3c(C)ccc(C(C)C)c3cc2C)cc1 | 13.37
60 | Cc1cc2c(C(C)C)ccc(C)c2cc1OC(=O)c1ccc([N+](=O)[O-])cc1 | 43.03

tested on: MCF7; assay: Antiproliferative activity against human MCF7 cells after 48 hrs by sulforhodamine B assay; assay type: functional, cell-based; settings: MCF7, 48 h

Row | pIC50 | SMILES
61 | 5.09 | Cc1ccc(C(=O)Oc2cc3c(C)ccc(C(C)C)c3cc2C)cc1
62 | 5.10 | Cc1cc2c(C(C)C)ccc(C)c2cc1OC(=O)c1ccc([N+](=O)[O-])cc1

Row | SMILES | pIC50
63 | CC1=CC[C@H](C(C)C)c2cc(C)c(OC(=O)Nc3ccccc3)cc21 | 5.39
